Measurements as given in patent US20140154702A1, “Methods For Treating Cancer Using Combination Therapies” (ENDOCYTE, INC., priority 2012, published 2014).
Entries after “also recorded” stand apart in the source; their conditions may differ. Like-named read-outs stand apart in the source and are kept apart here.

Key:
Assay type in all cases: cell-based
KB cells [1] = test: Inhibition of non-FR-specific activity (cytotoxicity) of EC0531 by co-administered inhibitors, KB cells; conditions: for IC50: read-out: IC50 of inhibition of non-FR-specific activity of EC0531
Experimental: Extracellular thiol activity was determined using the DTNB method described above. […] Cells were seeded in 24-well tissue culture-treated plates at 1×10^5 cells per well and allowed to attach overnight at 37° C. […] To assess non-FR-targeted activity in FR+cells, 100 μM FA was included as a competitor along with the drug in the treatment solutions. Cells were incubated for 2 hours in the presence of drug, washed 3 times with media, and then chased in 0.5 mL of FDRPMI/HIFBS (FR+cells) or RPMI+FA/HIFBS (FR−cells) to 72 h at 37° C. Spent medium was then aspirated from the wells, and cells were incubated with 1 μCi/mL ^3H-thymidine for 4 hours at 37° C., washed two times with PBS, pH 7.4, then treated with 0.4 mL 5% trichloroacetic acid per well. After 15 minutes, the trichloroacetic acid was aspirated from the wells, and cells were solubilized in 0.5 mL 0.25 N sodium hydroxide. Each sample (450 μL) was transferred to a scintillation vial containing 3 mL of Ecolite+scintillation cocktail and then counted in a liquid scintillation counter (LSC). Final results were expressed as percentage of ^3H-thymidine incorporation relative to an untreated control (non-competed groups) or FA control (competed groups).
The inhibition of non-FR-specific activity (i.e., cytotoxicity) was evaluated for each thiol inhibitor.
Cells were seeded in 24-well tissue culture-treated plates at 1×10^5 cells per well and allowed to attach overnight at 37° C. […] Cells were incubated for 2 hours in the presence of drug, competitor, and inhibitor, washed 3 times with media, and then chased in 0.5 mL of FDRPMI/HIFBS to 72 hours at 37° C. Cells were then treated as described above to determine ^3H-thymidine incorporation. Final results were expressed as percentage of ^3H-thymidine incorporation relative to an untreated control (non-competed groups) or FA control (competed groups).
The inhibition of non-FR-specific activity (i.e., cytotoxicity) was evaluated. KB cells were seeded in 24-well tissue culture-treated plates at 1×10^5 cells per well in FDRPMI/HIFBS and allowed to attach to the plates overnight at 37° C. […] Cells were incubated for 2 hours in the presence of drug, FA competitor, and inhibitor, washed 3 times with media, then chased in 0.5 mL of FDRPMI/HIFBS to 72 hours at 37° C. Cells were then treated as described above to determine ^3H-thymidine incorporation. Final results were expressed as percentage of ^3H-thymidine incorporation relative to an untreated control (non-competed groups) or FA control (competed groups). […]

A549 cells [2] = test: Extracellular thiol activity (DTNB method), A549 cells; conditions: for effect of added thiol on extracellular thiol activity (SH concentration): added to SH-free RPMI: GSSG (1.6 μM), cysteine (189 μM), 2 hours, FIG. 11; for effect on release of extracellular thiols (SH concentration): glutamate (5 mM), quisqualic acid (0.3 mM and 1 mM), 2 hours at 37° C., FIG. 12
KB cells [3] = test: 3H-EC0531 uptake study, KB cells; conditions: for effect of inhibitor on nonspecific uptake of 3H-EC0531: 1 μM EC0531 plus inhibitor, 100 μM FA, 2 hours at 37° C.
Experimental: (§1) To determine non-FR-targeted uptake, 100 μM FA was included in the uptake solutions. Cells were incubated with 0.5 mL of uptake solution for 2 h at 37° C., washed 3 times with ice-cold PBS, and were solubilized in 0.5 mL 1% SDS in PBS, pH 7.4. Cell lysates (450 μL) were added to 3 mL Ecolite+scintillation cocktail and counted in a liquid scintillation counter. Protein concentrations of the remaining lysates were determined using the BCA Protein Assay (Pierce, Rockford, Ill.). Molecules per cell were calculated based on DPM values and previously determined cellular protein conversion factors (2.82×10^−7 and 2.23×10^−7 mg protein per cell for KB and A549, respectively).
(§2) FA at a concentration of 100 μM was used as a competitor to determine non-FR-specific uptake in KB cells. Wells were then washed 3 times with 1 mL of ice-cold PBS, pH 7.4 and were processed for LSC analysis as described above.
(§3) Wells were then washed 3 times with 1 mL of ice-cold PBS, pH 7.4 and were processed for LSC analysis as described above.

A549 cells [4] = test: 3H-EC0531 uptake study, A549 cells; conditions: for effect of inhibitor on nonspecific uptake of 3H-EC0531: 1 μM EC0531 plus inhibitor, 2 hours at 37° C.
Experimental: as §1, §2, §3

KB cells [5] = test: Inhibition of non-FR-specific activity (cytotoxicity) of EC0531 by co-administered inhibitors, KB cells; conditions: KB cells pre-treated with inhibitor prior to EC0531 and folic acid; DTNB (100 μM), NCEM (10 mM); FIG. 6
A549 cells [6] = test: Inhibition of non-FR-specific activity (cytotoxicity) of EC0531 by co-administered inhibitors, A549 cells; conditions: sulfasalazine (1 mM), glutamate (5 mM) with increasing EC0531, 2 hours, chase to 72 hours, FIG. 14
Experimental: Cells were then treated as described above to determine ^3H-thymidine incorporation. The inhibition of non-FR-specific activity (i.e., cytotoxicity) was evaluated for each system xc^− inhibitor.

[7] = DTNB 10 μM and 100 μM, excess folic acid, FIG. 8
[8] = KB cells, co-administered with EC0531 (1 μM) and folic acid (100 μM)
[9] = inhibitor concentration 3 mM, co-administration with EC0531
[10] = inhibitor concentration 100 μM, co-administration with EC0531
[11] = KB cells, co-administered with EC0531 (1 μM) and folic acid (100 μM), 2 hours, 72 hour chase

O=C1OC(c2ccc(O)c(S(=O)(=O)O)c2)(c2ccc(O)c(S(=O)(=O)O)c2)c2c(Br)c(Br)c(Br)c(Br)c21 [BSP]
Inhibition of EC0531 Nonspecific Activity (KB cells [1]): <50% inhibition

N[C@@H](CS)C(=O)O [Cysteine, cysteine]
effect of added thiol on extracellular thiol activity (SH concentration) (A549 cells [2]): responsible for stimulation

O=S(=O)(O)c1cc(N=C=S)ccc1C=Cc1ccc(N=C=S)cc1S(=O)(=O)O [DIDS]
effect of inhibitor on nonspecific uptake of 3H-EC0531 (KB cells [3]): reduced
Inhibition of EC0531 Nonspecific Activity (KB cells [1]): Full inhibition
effect of inhibitor on nonspecific uptake of 3H-EC0531 (A549 cells [4]): reduced

O=C(O)c1cc(SSc2ccc([N+](=O)[O-])c(C(=O)O)c2)ccc1[N+](=O)[O-] [DTNB, 5,5′-dithiobis(2-nitrobenzoic acid)]
effect of inhibitor on nonspecific uptake of 3H-EC0531 (KB cells [3]): reduced
effect of inhibitor on nonspecific uptake of 3H-folic acid (KB cells [3]; [7]): mostly unaffected
inhibition of non-FR-specific activity of EC0531 (in words) (KB cells [1]; [8]): dose-responsive inhibition
Inhibition of EC0531 Nonspecific Activity (KB cells [1]; inhibitor concentration 10 μM, co-administration with EC0531): Full inhibition
IC50 (KB cells [1]): 4.6 µM
inhibition of non-FR-specific activity of EC0531 by pre-treatment of cells (KB cells [5]): not effective
effect of inhibitor on nonspecific uptake of 3H-EC0531 (A549 cells [4]): reduced
effect of inhibitor on nonspecific uptake of 3H-folic acid (A549 cells [4]; [7]): mostly unaffected

O=S(=O)([O-])CCSSCCS(=O)(=O)[O-].[Na+].[Na+] [Dimesna, 2,2′-dithio-bis-ethanesulfonate]
Inhibition of EC0531 Nonspecific Activity (KB cells [1]): Full inhibition

N[C@@H](CCC(=O)N[C@@H](CSCC(=O)Nc1ccc([As](O)O)cc1)C(=O)NCC(=O)O)C(=O)O [EC1277 (GSAO), 4-(N—(S-glutathionylacetyl)amino) phenylarsonous acid]
Inhibition of EC0531 Nonspecific Activity (KB cells [1]; [9]): Full inhibition

O=C(O[C@@H]1Cc2c(O)cc(O)cc2O[C@@H]1c1cc(O)c(O)c(O)c1)c1cc(O)c(O)c(O)c1 [EGCg, epigallocatechin gallate]
Inhibition of EC0531 Nonspecific Activity (KB cells [1]; 100 µM): >50% inhibition

O=C(O)CCN1C(=O)C=CC1=O [NCEM, N-(2-carboxyethyl)maleimide]
effect of inhibitor on nonspecific uptake of 3H-EC0531 (KB cells [3]): reduced
inhibition of non-FR-specific activity of EC0531 (in words) (KB cells [1]; [8]): dose-responsive inhibition
Inhibition of EC0531 Nonspecific Activity (KB cells [1]; [10]): Full inhibition
IC50 (KB cells [1]; [11]): 17 µM
inhibition of non-FR-specific activity of EC0531 by pre-treatment of cells (KB cells [5]): not effective
effect of inhibitor on nonspecific uptake of 3H-EC0531 (A549 cells [4]): reduced

N[C@@H](CCC(=O)O)C(=O)O [glutamate]
inhibition of non-FR-specific activity of EC0531 (in words) (A549 cells [6]): inhibit
effect on release of extracellular thiols (SH concentration) (A549 cells [2]): significantly reduce

CN(Cc1cnc2nc(N)nc(N)c2n1)c1ccc(C(=O)N[C@@H](CCC(=O)O)C(=O)O)cc1 [methotrexate]
effect of inhibitor on nonspecific uptake of 3H-EC0531 (KB cells [3]): ineffective
effect of inhibitor on nonspecific uptake of 3H-EC0531 (A549 cells [4]): ineffective

O=S(=O)([O-])c1cc[c]([Hg][Cl])cc1 [pCMBS, p-chloromercuribenzene sulfonate]
Inhibition of EC0531 Nonspecific Activity (KB cells [1]; [10]): >50% inhibition

N[C@@H](Cn1oc(=O)[nH]c1=O)C(=O)O [quisqualic acid]
effect on release of extracellular thiols (SH concentration) (A549 cells [2]): significantly reduce; also recorded: dose-dependent reduction

O=C(O)c1cc(/N=N/c2ccc(S(=O)(=O)Nc3ccccn3)cc2)ccc1O [sulfasalazine]
effect of inhibitor on nonspecific uptake of 3H-EC0531 (KB cells [3]): reduced
inhibition of non-FR-specific activity of EC0531 (in words) (KB cells [1]; [8]): dose-responsive inhibition
IC50 (KB cells [1]; [11]): 170 µM
effect of inhibitor on nonspecific uptake of 3H-EC0531 (A549 cells [4]): reduced
inhibition of non-FR-specific activity of EC0531 (in words) (A549 cells [6]): inhibit; also recorded: greater inhibition

folate-maleimide
inhibition of non-FR-specific activity of EC0531 (in words) (KB cells [1]; [8]): dose-responsive inhibition
Inhibition of EC0531 Nonspecific Activity (KB cells [1]; [10]): Full inhibition
IC50 (KB cells [1]; [11]): 3.5 µM

methoxy-PEG5000-vinylsulfone
Inhibition of EC0531 Nonspecific Activity (KB cells [1]; [9]): >50% inhibition

oxidized glutathione [GSSG]
Inhibition of EC0531 Nonspecific Activity (KB cells [1]): Full inhibition
effect of added thiol on extracellular thiol activity (SH concentration) (A549 cells [2]): no effect
